Results taken from patent US12281123B2, “Benzoxazinone compounds as KLK5/7 dual inhibitors” (MOLECULAR SKIN THERAPEUTICS, INC., priority 2019, dated 2025).
Marks after values point to notes of the source that are not given here.

How the values were obtained:
Type in all cases: biochemical
Recombinant human KLK5 = molecular target: T1, Recombinant human KLK5 (Homo sapiens, UniProt Q9Y337); test: Recombinant KLK5 chromogenic IC50 assay; details: Table 2; assay protocol of Example 3; read-out: Recombinant KLK5 enzyme (IC50)
T1 construct: purchased SpeedBio (Gaithersburg, MD) / SpeedBioSystems; host or cells: HEK293
T1 sequence (Q9Y337 23-293): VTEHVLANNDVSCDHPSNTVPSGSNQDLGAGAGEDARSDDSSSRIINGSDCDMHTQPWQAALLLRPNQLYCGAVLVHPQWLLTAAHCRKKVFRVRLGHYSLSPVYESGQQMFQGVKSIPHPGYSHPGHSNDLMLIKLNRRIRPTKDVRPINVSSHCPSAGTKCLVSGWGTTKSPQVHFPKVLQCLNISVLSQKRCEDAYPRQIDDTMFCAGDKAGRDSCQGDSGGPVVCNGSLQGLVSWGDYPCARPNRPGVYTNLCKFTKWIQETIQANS
From the text: (§1) Human Kallikrein Proteins: Recombinant human KLK5 expressed in HEK293 was obtained from SpeedBio (Gaithersburg, MD). Recombinant proenzyme KLK-7 and recombinant proenzyme KLK-14 both expressed in mouse myeloma cells were from R&D Biosystems (Minneapolis, MN). Plasmin and thrombin were from Haematologic Technologies (Essex Junction, VT). Trypsin and Chymotrypsin were bought from Worthington Biochemical Corporation (Lakewood, NJ) and plasma kallikrein was from Prospec (East Brunswick, NJ). Neutrophil Elastase was obtained from Innovative Research (Peary Court, MI). Bovine recombinant enterokinase expressed in E. coli was bought from Sigma (St. Louis, MI). Matriptase expressed in E. coli was obtained from Enzo Life Sciences (Farmingdale, NY). The control inhibitors Nafamostat mesylate was from Sigma (St. Louis, MI) and (2-(2-fluorophenyl)-5,6,7,8-tetrahydro-4H-benzo[4,5]thieno[2,3-d][1,3]oxazin-4-one was from Interbioscreen (Moskow, Russia).
(§2) Substrates: S-2288 (D-Ile-Pro-Arg-pNA), CS-PSA (MeO-Suc-Arg-Pro-Tyr-pNA), S-2266 (H-D-Val-Leu-Arg-pNA) and S-2288 (H-D-Ile-Pro-Arg-pNA) were bought from Diapharma (West Chester, OH). MeOSuccAla-Ala-Pro-Val-pNA was purchased from Sigma (St Louis, MI). The substrates were dissolved in water at 10 mM and were frozen in aliquots at −20° C.
(§3) Assays: All assays were performed in 384 well polystyrene plates coated overnight with 0.1% Tween 20 at 4° C. The plates were then washed twice with 100 μL water and dried. For the determination of IC50 values, the inhibitors were diluted in serial dilutions of 1:3 intervals into pure DMSO at 50 fold of the intended final concentrations in the assays. Usually eight inhibitor dilutions and one DMSO control were prepared. The substrates were diluted into water at 2.2-fold the final concentration in the assay mixture. The wells of the plate were filled with 50 μL of the enzyme diluted in 2× assay buffer (100 mM Tris, 200 mM NaCl, 0.2% PEG, 0.01% Tween, 2 mM EDTA, pH 8.0) at twofold the intended concentration. Then 5 μL DMSO, 2.2 μL inhibitor and 45 μL substrate were added to start the reaction. The assays were monitored at 37° C. in a multi well plate reader at a wavelength of 405 nm (Molecular Devices, San Jose, CA) for 1 h. The tool inhibitor, nafamostat, was used as a control for trypsin, thrombin, KLK-5 and KLK-14 at 10 μM maximal concentration and (2-(2-fluorophenyl)-5,6,7,8-tetrahydro-4H-benzo[4,5]thieno[2,3-d][1,3]oxazin-4-one for KLK-7 at 5 μM.
(§4) The table summarizes assay conditions for the individual enzymes:
(§5) Data analysis: The progress curves of substrate hydrolysis were analyzed by linear regression of the final 20 min of the reaction. Fit of the dose response of the resulting rates to the following equation yielded the IC50:
(§6) [formula] with 1) c: the background rate at the highest inhibitor concentration; 2) d: the rate of the control reaction; 3) IC50: the IC50 of the inhibitor; 4) x: the inhibitor concentration; and 5) b: the slope.
(§7) Proteases: KLK5 (SpeedBioSystems); KLK7 (R&Dsystems) was activated with enterokinase (2 hours, 37° C.) prior to assay; Trypsin (Sigma Aldrich); Chymotrypsin (Sigma Aldrich); Factor Xa (Haematologic Technologies); Plasmin (Haematologic Technologies); KLK14 (R&Dsystems) was activated with enterokinase (1 hour, 37° C.) prior to assay; Thrombin (Haematologic Technologies); Neutrophil Elastase (Athens Research&Technology); and KLK1 (Prospec).

[1] = test system: KLK proteases in human skin extract; test: Inhibition of protease activity in human skin extract; details: human skin extract; for Rate in Skin Assay: compound concentration not given
Procedure: Materials: The peptide substrates PS-01 (YRSR-pNA Tyr-Arg-Ser-Arg-pNA) (SEQ ID NO. 1) and PS-02 (Lys-His-Leu-Tyr-pNA) (SEQ ID NO. 2) were synthesized by Zamboni Chemical Solutions (Montreal, Canada). Human epidermis samples were obtained from Biopredic (Saint-Grégoire, France). The BCA protein assay kit was bought from VWR.
Preparation of skin extract: The epidermis was frozen and lyophilized. A sample of 15 mg lyophilized epidermis was immersed in 1 mL high salt buffer (100 mM Tris, 5 mM EDTA, 2M KCl, pH 8), frozen twice in dry ice and thawed. After incubation overnight at 4° C. and addition of six 2.4 mm metal beads, the sample was homogenized in a Bertin Precellys Homogenizer (Atkinson, NH) three times at […] for 20 seconds each and cooled in between for 30 seconds. After centrifugation at maximal speed in a desktop minifuge, the protein concentration of the supernatant was determined by BCA assay (˜0.5 mg/mL).
Inhibition of protease activity in skin extract: Stock solutions of 200, 66, 22 and 0 μM of the tested compound in DMSO were prepared. Substrate stocks of 1100 μM PS-01 and PS-02 were prepared by dissolving in water. The wells of a 384 well plate was filled with 50 μL 2× assay buffer (see above) and then 45 μL substrate stock and 5 μL of the test compound were added. The reaction was started by addition of 10 μL skin extract for the substrate PS-02 and 5 μL for the substrate PS-01. The substrate hydrolysis was monitored in multi-well plate reader at 405 nm.
Chromogenic substrate cleavage progressions of Compounds 1.001, 1.002, and 14 were tested according to human stratum corneum extract assay of Example 4 using KLK5 and KLK7 preferred chromogenic peptide substrates (PS-01 and PS-02). The proteolytic cleavage of KLK5 selective substrate in skin extract by Compounds 1.001, 1.002, and 14 are compared and shown in FIGS. 4A-4D. NSK refers to extract from skin freshly prepared; and OSK refers to extract from skin post freeze thaw.

KLK7 = molecular target: T2, KLK7 (Homo sapiens, UniProt P49862); test: Recombinant KLK7 chromogenic IC50 assay; details: Table 2; assay protocol of Example 3; read-out: Recombinant KLK7 enzyme (IC50)
T2 construct: purchased R&D Biosystems (Minneapolis, MN) / R&Dsystems; host or cells: mouse myeloma cells
T2 sequence (P49862 30-253): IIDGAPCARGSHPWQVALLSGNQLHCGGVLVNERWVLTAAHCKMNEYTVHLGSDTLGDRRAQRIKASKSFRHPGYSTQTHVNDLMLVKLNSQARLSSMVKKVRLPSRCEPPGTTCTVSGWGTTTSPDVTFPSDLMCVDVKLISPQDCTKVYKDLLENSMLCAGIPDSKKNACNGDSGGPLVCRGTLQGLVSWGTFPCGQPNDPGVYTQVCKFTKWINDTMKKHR
From the text: as §1, §2
Activation of KLK-7 and KLK-14: 150 μL 8 μM solution of the proenzymes of KLK-7 or KLK-14 in 50 mM Tris, 10 mM CaCl2, 150 mM NaCl, 0.05% (w/v) Brij-35, pH 7.5 were mixed with 150 μL 10 μg/mL bovine enterokinase in the same buffer and incubated for 2 h for KLK-7 and 1 h for KLK-14 at 37° C. After the incubation period, activation was stopped by addition of 6 μL 0.5 M EDTA pH 8.0.
as §3, §4, §5, §6, §7

Row | SMILES | IC50 (Recombinant human KLK5) [nM] | Initial rate of proteolytic activity ([1]; Conc 1 μM) | Initial rate of substrate hydrolysis ([1]; Conc 1 μM) | Initial rate of proteolytic activity ([1]; Conc 3.3 μM) | Initial rate of substrate hydrolysis ([1]; Conc 3.3 μM) | Rate in Skin Assay [1] | IC50 (KLK7) [nM]
1 | CS(=O)(=O)c1ccc(CO)cc1-c1nc2cc3c(cc2c(=O)o1)OCCO3 [Compound 1.002, 2-(5-(Hydroxymethyl)-2-(methylsulfonyl)phenyl)-7,8-dihydro-4H-[1,4]dioxino[2′,3′:4,5]benzo[1,2-d][1,3]oxazin-4-one] | 1570 | 0.1* Absorbance405/min | 0.06* Absorbance405/min | 0.09* Absorbance405/min | 0.05* Absorbance405/min | 0.009* Absorbance405/min | 220
2 | CS(=O)(=O)c1ccccc1-c1nc2cc3c(cc2c(=O)o1)OCCO3 [Compound 14, reference compound] | 240 | 0.13* Absorbance405/min | 0.1* Absorbance405/min | 0.11* Absorbance405/min | 0.08* Absorbance405/min | 0.14* Absorbance405/min | 130
